Source: patent US6514997B2, “Antipicornaviral compounds and compositions, their pharmaceutical uses, and materials for their synthesis” (Agouron Pharmaceuticals, Inc., priority 1999, dated 2003)
Read-outs that look alike come from different tables or passages of the source.

Experiments:
HRV-14 = assay: Antirhinoviral H1-HeLa cell culture assay (XTT cell protection, EC50), HRV-14; assay type: cell-based, human rhinovirus (HRV) serotype-14 in H1-HeLa cells; details: Rhinovirus B, HRV14, H1-HeLa
In short: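 H1-HeLa cells were infected with HRV-14 at m.o.i. 0.13, or mock-infected, and incubated with compound for two days. Cell protection was read by XTT/PMS formazan absorbance at 450/650 nm to give EC50. CC50 came from mock-infected cells, and TI = CC50/EC50.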

[1] = system: strains of human rhinovirus (HRV); assay: Antirhinoviral H1-HeLa cell culture assay (XTT cell protection, EC50), other HRV strains; assay type: cell-based, human rhinovirus in H1-HeLa cells; details: read-out: EC50
In short: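 H1-HeLa cells infected, or mock-infected, were incubated with compounds for two days. Cell protection measured by XTT/PMS formazan absorbance at 450/650 nm; TI taken as CC50 divided by EC50.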

[2] = target: T1, Recombinant rhinovirus 3C protease, serotype 14 (Human rhinovirus 14, UniProt P03303); assay: Inhibition of rhinovirus 3C protease (FRET assay, kobs/[I]), serotype 14; assay type: biochemical; details: pH 7.6; HRV-14 3C protease; read-out: kobs/[I] (3C protease inhibition activity)
T1 construct: Recombinant rhinovirus 3C proteases; made in house
In short: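 Enzyme-start FRET assay with ~1 μM DABCYL/EDANS peptide substrate and 50-100 nM recombinant protease in 50 mM tris pH 7.6, 1 mM EDTA, 2% DMSO. Cleavage followed as fluorescence increase; kobs/[I] derived from progress curves.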

[3] = Cytotoxicity (CC50) in mock-infected H1-HeLa cells, XTT dye reduction; assay type: cell-based, human; details: human, H1-HeLa cells, mock-infected; HRV-14
In short: (§1)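 H1-HeLa cells mock-infected, read by XTT/PMS formazan at 450/650 nm.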

H1-HeLa cells = assay: as above; assay type: cell-based, human
In short: as §1

[4] = Human rhinovirus sp., HRV9, H1-HeLa, HRV-9
[5] = Human rhinovirus sp., HRV10, H1-HeLa, HRV-10
[6] = Human rhinovirus sp., HRV25, H1-HeLa, HRV-25
[7] = Human rhinovirus sp., HRV3, H1-HeLa, HRV-3
[8] = Human rhinovirus sp., HRV13, H1-HeLa, HRV-13
[9] = Human rhinovirus sp., HRV16, H1-HeLa, HRV-16
[10] = Human rhinovirus sp., HRV39, H1-HeLa, HRV-39
[11] = Human rhinovirus sp., HRV78, H1-HeLa, HRV-78

T1 sequence (P03303 1538-1719): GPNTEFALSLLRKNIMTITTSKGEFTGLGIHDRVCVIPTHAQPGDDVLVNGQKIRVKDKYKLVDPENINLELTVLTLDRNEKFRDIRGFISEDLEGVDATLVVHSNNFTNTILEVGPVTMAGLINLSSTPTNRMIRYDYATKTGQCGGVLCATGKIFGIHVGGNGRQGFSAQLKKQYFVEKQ

Row | Structure (SMILES) | EC50 (HRV-14) [nM] | EC50 ([1]; H1-HeLa, HRV-1A) [nM] | EC50 [1, 4] [nM] | EC50 [1, 5] [nM] | EC50 [1, 6] [nM] | kinact/KI [2] [M⁻¹ s⁻¹] | CC50 at 2 days [3] [nM] | CC50 (H1-HeLa cells; HRV-1A) [nM] | CC50 (H1-HeLa cells; HRV-9) [nM] | CC50 (H1-HeLa cells; HRV-10) [nM] | CC50 (H1-HeLa cells; HRV-25) [nM] | EC50 [1, 7] [nM] | EC50 [1, 8] [nM] | EC50 [1, 9] [nM] | EC50 [1, 10] [nM] | EC50 [1, 11] [nM] | CC50 (H1-HeLa cells; HRV-3) [nM] | CC50 (H1-HeLa cells; HRV-13) [nM] | CC50 (H1-HeLa cells; HRV-16) [nM] | CC50 (H1-HeLa cells; HRV-39) [nM] | other results
1 | C#CC[C@@H](C(=O)N[C@H](/C=C/C(=O)OC1CCCCCC1)C[C@@H]1CCNC1=O)n1cccc(NC(=O)c2cc(C)on2)c1=O [Compound 57, trans-(2′S,3′″″S,4S)-4-[2′-(3″-{[1′″-(5″″-Methylisoxazol-3″″-yl)methanoyl]amino}-2′″-oxo-2′″H-pyridin-1′″-yl)pent-4″-ynoylamino]-5-(2′″″-oxopyrrolidin-3′″″-yl)pent-2-enoic Acid Cycloheptyl Ester] | 422 | 1610 | 1500 | 482 | 511 | 47000 | > 10000 | > 10000 | > 10000 | > 10000 | > 10000 | – | – | – | – | – | – | – | – | – | –
2 | Cc1cc(C(=O)Nc2cccn([C@@H](Cc3ccc(F)c(F)c3)C(=O)N[C@H](/C=C/C(=O)OC3CCC3)C[C@@H]3CCNC3=O)c2=O)no1 [Compound 58, trans-(2′S,3″″″S,4S)-4-[3′-(3″,4″-Difluorophenyl)-2′-(3′″-{[1″″-(5′″″-methylisoxazol-3′″″-yl)methanoyl]amino}-2″″-oxo-2″″H-pyridin-1″″-yl)propanoylamino]-5-(2″″″-oxopyrrolidin-3″″″-yl)pent-2-enoic Acid Cyclobutyl Ester] | 3 | 14 | 47 | 11 | 16 | 2.2e+06 | > 10000 | > 10000 | > 10000 | > 10000 | > 10000 | 5 | 24 | 14 | 20 | 14 | > 10000 | > 10000 | > 10000 | > 10000 | EC50 ([1]; H1-HeLa, HRV-2): 13 nM; EC50 ([1]; H1-HeLa, HRV-23): 8 nM; EC50 ([1]; Human rhinovirus sp., H1-HeLa, HRV-Hanks): 21 nM; EC50 ([1]; Human rhinovirus sp., HRV11, H1-HeLa, HRV-11): 5 nM; EC50 ([1]; Human rhinovirus sp., HRV19, H1-HeLa, HRV-19): 17 nM; CC50 (H1-HeLa cells; HRV-2): > 10000 nM; CC50 (H1-HeLa cells; HRV-11): > 10000 nM; CC50 (H1-HeLa cells; HRV-19): > 10000 nM; CC50 (H1-HeLa cells; HRV-23): > 10000 nM; CC50 (H1-HeLa cells; HRV-78): > 10000 nM; CC50 (H1-HeLa cells; HRV-Hanks): > 10000 nM
3 | CC[C@@H](C(=O)N[C@H](/C=C/C(=O)OC1CCCCC1)C[C@@H]1CCNC1=O)n1cccc(NC(=O)c2cc(C)on2)c1=O [Compound 60, trans-(2′S,3′″″S,4S)-4-[2′-(3″-{[1′″-(5″″-Methylisoxazol-3″″-yl)methanoyl]amino}-2′″oxo-2′″H-pyridin-1′″-yl)butanoylamino]-5-(2′″″-oxopyrrolidin-3′″″-yl)pent-2-enoic Acid Cyclohexyl Ester] | 173 | 558 | 516 | 368 | 251 | 23000 | > 10000 | > 10000 | > 10000 | > 10000 | > 10000 | – | – | – | – | – | – | – | – | – | –
4 | Cc1cc(C(=O)Nc2cccn([C@@H](Cc3ccccc3)C(=O)N[C@H](/C=C/C(=O)OC(C)C)C[C@@H]3CCNC3=O)c2=O)no1 [Compound 66, trans-(2′S,3′″″S,4S)-4-[2′-(3″-{[1′″-(5″″-Methylisoxazol-3″″-yl)methanoyl]amino}-2′″-oxo-2′″H-pyridin-1′″-yl)-3″-phenylpropanoylamino]-5-(2′″″-oxopyrrolidin-3′″″-yl)pent-2-enoic Acid Isopropyl Ester] | 155 | – | 196 | – | – | 480000 | > 10000 | – | > 10000 | – | – | 56 | 57 | 11 | 22 | 15 | > 10000 | > 10000 | > 10000 | > 10000 | CC50 (H1-HeLa cells; HRV-78): > 10000 nM
5 | Cc1cc(C(=O)Nc2cccn([C@@H](Cc3ccc(F)cc3)C(=O)N[C@H](/C=C/C(=O)OC(C)C)C[C@@H]3CCNC3=O)c2=O)no1 [Compound 67, trans-(2′S,3″″″S)-4-[3′-(4″-Fluorophenyl)-2′-(3′″-{[1″″-(5′″″-methylisoxazol-3′″″-yl)methanoyl]amino}-2″″-oxo-2″″H-pyridin-1″″-yl)propanoylamino]-5-(2″″″-oxopyrrolidin-3″″″-yl)pent-2-enoic Acid Isopropyl Ester] | 57 | – | 162 | – | – | 462000 | > 10000 | – | > 10000 | – | – | 19 | 162 | 33 | 38 | 48 | > 10000 | > 10000 | > 10000 | > 10000 | CC50 (H1-HeLa cells; HRV-78): > 10000 nM
